# Results taken from patent US8540999B2, “Allergenic proteins and peptides from Japanese cedar pollen” (Merck Patent GmbH, priority 1991, dated 2013).
# Ends that are not written are not given here.
# B1: Cry j IIE: recombinant peptide, amino acids 281-396 of Cry j II, SEQ ID NO: 189 (protein, listed as Cryptomeria japonica)
# chain: MGHHHHHHEFSIGSLGRENSRAEVSYVHVNGAKFIDTQNGLRIKTWQGGSGMASHIIYENVEMINSENPILINQFYCTSASACQNQRSAVQIQDVTYKNIRGTSATAAAIQLKCSDSMPCKDIKLSD
# B2: Cry j IID: recombinant peptide, amino acids 164-280 of Cry j II, SEQ ID NO: 188 (protein, listed as Cryptomeria japonica)
# chain: MGHHHHHHEFWAGQCKWVNGREICNDRDRPTAIKFDFSTGLIIQGLKLMNSPEFHLVFGNCEGVKIIGISITAPRDSPNTDGIDIFASKNFHLQKNTIGTGDDCVAIGTGSSNIVIEDLICGPGHGI
# B3: rCry j II: recombinant Cry j II expressed in E. coli with His6 leader (protein, listed as Cryptomeria japonica)
# chain: MAMKLIAPMAFLAMQLIIMAAAEDQSAQIMLDSVVEKYLRSNRSLRKVEHSRHDAINIFNVEKYGAVGDGKHDCTEAFSTAWQAACKNPSAMLLVPGSKKFVVNNLFFNGPCQPHFTFKVDGIIAAYQNPASWKNNRIWLQFAKLTGFTLMGKGVIDGQGKQWWAGQCKWVNGREICNDRDRPTAIKFDFSTGLIIQGLKLMNSPEFHLVFGNCEGVKIIGISITAPRDSPNTDGIDIFASKNFHLQKNTIGTGDDCVAIGTGSSNIVIEDLICGPGHGISIGSLGRENSRAEVSYVHVNGAKFIDTQNGLRIKTWQGGSGMASHIIYENVEMINSENPILINQFYCTSASACQNQRSAVQIQDVTYKNIRGTSATAAAIQLKCSDSMPCKDIKLSDISLKLTSGKIASCLNDNANGYFSGHVIPACKNLSPSAKRKESKSHKHPKTVMVENMRAYDKGNRTRILLGSRPPNCTNKCHGCSPCKAKLVIVHRIMPQEYYPQRWICSCHGKIYHP
# B4: Cry j IIC: recombinant peptide, amino acids 46-163 of Cry j II, SEQ ID NO: 187 (protein, listed as Cryptomeria japonica)
# chain: MGHHHHHHEFRKVEHSRHDAINIFNVEKYGAVGDGKHDCTEAFSTAWQAACKNPSAMLLVPGSKKFVVNNLFFNGPCQPHFTFKVDGIIAAYQNPASWKNNRIWLQFAKLTGFTLMGKGVIDGQGKQW
# B5: Cry j IIF: recombinant peptide, amino acids 397-514 of Cry j II, SEQ ID NO: 190 (protein, listed as Cryptomeria japonica)
# chain: MGHHHHHHEFISLKLTSGKIASCLNDNANGYFSGHVIPACKNLSPSAKRKESKSHKHPKTVMVENMRAYDKGNRTRILLGSRPPNCTNKCHGCSPCKAKLVIVHRIMPQEYYPQRWICSCHGKIYHP
# How the values were obtained:
# Cry j I reactive T cells = experiment: T cell proliferation assay, Cry j I primed T cell lines (Example 6); format: cell-based, human; details: for T cell reactivity: Example 21 narrative, parent peptides of CJI-44.8; for T cell line response: panel of twenty-five patients, FIG. 14
# Procedure: Viable cells were purified by LSM centrifugation and cultured in complete medium supplemented with 5 units recombinant human IL-2/ml and 5 units recombinant human IL-4/ml for up to three weeks until the cells no longer responded to lymphokines and were considered “rested”. The ability of the T cells to proliferate to selected peptides, recombinant Cry j I (rCry j I), purified native Cry j I, or recombinant Amb aI.1 (rAmb aI.1) or a positive control, phyto-hemaglutinin (PHA) was then assessed. For assay, 2×10^4 rested cells were restimulated in the presence of 2×10^4 autologous Epstein-Barr virus (EBV)-transformed B cells (prepared as described below) (gamma-irradiated with 25,000 RADS) with 2-50 μg/ml of selected peptides, Cry j I, purified native Cry j I or rAmb a I.1 or PHA, in a volume of 200 μl complete medium in duplicate or triplicate wells in 96-well round bottom plates for 2-4 days. […] Each well then received 1 μCi tritiated thymidine for 16-20 hours. The counts incorporated were collected onto glass fiber filter mats and processed for liquid scintillation counting. […] The titrations were used to optimize the dose of peptides in T cell assays. The maximum response in a titration of each peptide is expressed as the stimulation index (S.I.). The S.I. is the counts per minute (CPM) incorporated by cells in response to peptide, divided by the CPM incorporated by cells in medium only.
# The above procedure was followed with a number of other patients. […] The bars represent the positivity index. Above each bar is the percent of positive responses with an S.I. of at least two to the peptide or protein in the group of patients tested. In parenthesis above each bar are the mean stimulation indices for each peptide or protein for the group of patients tested.
# Autologous EBV-transformed cell lines were y-irradiated with 25,000 Rad and used as antigen presenting cells in secondary proliferation assays and secondary bulk stimulations. These EBV-transformed cell lines were made by incubating 5×10^6 PBL with 1 ml of B-59/8 Marmoset cell line (ATCC CRL1612, American Type Culture Collection, Rockville, Md.) conditioned medium in the presence of 1 μg/ml phorbol 12-myristate 13-acetate (PMA) at 37° C. for 60 minutes in 12×75 mm polypropylene round-bottom Falcon snap cap tubes (Becton Dickinson Labware, Lincoln Park, N.J.). These cells were then diluted to 1.25×10^6 cells/ml in RPMI-1640 as described above except supplemented with 10% heat-inactivated fetal bovine serum and cultured in 200 μl aliquots in flat bottom culture plates until visible colonies were detected. They were then transferred to larger wells until the cell lines were established.
# [1] = test system: Cry j II reactive T cells; experiment: T cell proliferation assay, Cry j II primed T cell lines (Example 19); format: cell-based, human
# Procedure: Long term T cell lines were established by stimulation of 2×10^6 PBL/ml in bulk cultures of complete medium (RPMI-1640, 2 mM L-glutamine, 100 U/ml penicillin/streptomycin, 5×10^−5M 2-mercaptoethanol, and 10 mM HEPES supplemented with 5% heat inactivated human AB serum) with 10 μg/ml of partially purified native Cry j II for 7 days at 37° C. in a humidified 5% CO2 incubator to select for Cry j II reactive T cells. This amount of priming antigen was determined to be optimal for the activation of T cells from most Japanese cedar pollen Cry j II allergic patients. Viable cells were purified by LSM centrifugation and cultured in complete medium supplemented with 5 units recombinant human IL-2/ml and 5 units recombinant human IL-4/ml for up to three weeks until the cells no longer responded to lymphokines and were considered “rested”. The ability of the T cells to proliferate to peptides Cry j IIA (SEQ ID NO: 185) and Cry j IIB (SEQ ID NO: 186), recombinant Cry j II (rCry j II) (SEQ ID NO: 134), purified native Cry j II, was then assessed. For assay, 2×10^4 rested cells were restimulated in the presence of 2×10^4 autologous Epstein-Barr virus (EBV)-transformed B cells (prepared as described in Example 6) (gamma-irradiated with 25,000 RADS) with 2-50 ’g/ml of rCry j II (SEQ ID NO: 134), purified native Cry j II, peptides Cry j IIA (SEQ ID NO: 185) and Cry j IIB (SEQ ID NO: 186), positive control (PHA), negative control (Amb a I.1), in a volume of […] complete medium in duplicate or triplicate wells in 96-well round bottom plates for 2-4 days. […] Each well then received 1 μCi tritiated thymidine for 16-20 hours. The counts incorporated were collected onto glass fiber filter mats and processed for liquid scintillation counting. The maximum response in a titration of each peptide is expressed as the stimulation index (S.I.). The S.I. is the counts per minute (CPM) incorporated by cells in response to peptide, divided by the CPM incorporated by cells in medium only. A positivity index may be calculated by multiplying the mean S.I. (indicated above each bar in FIGS. 42 and 43) by the percentage of individuals responding to the peptide (indicated in parentheses above each bar in FIGS. 42 and 43). […]
# [2] = Solubility, pH range protocol procedure; format: physicochemical; details: pH range pH6 to pH8
# Excerpt: (§1) Of the above group of modified peptides, several peptides have been identified as “unique” modified peptides. […] Certain modified peptides are characterized as “unique” due to the difficulties encountered when developing a modified peptide which meets all of the stringent requirements of a “unique” peptide defined herein. In many cases, multiple modifications of a parent peptide are attempted prior to identifying a modified derivitive peptide which meets all the characteristics of a “unique” modified peptide. Unique modified peptides are particularly useful as candidate peptides for formulating injectable multipeptide therapeutic formulations of the invention because “unique” modified peptides are soluble and stable in the same physiologically acceptable pH range as well as elicit the necessary T cell reactivity of a therapeutic peptide of the invention. “Unique” modified peptides of the invention include but are not limited to the following group of modified peptides: CJ1-24.5, CJ1-43.39, CJ1-43.50, CJ1-44.8, and CJ1-44.9 all as shown in FIGS. 20 and 44. Example 21 describes the development and identification of “unique” modified peptides of the invention.
# (§2) Additional truncation of two C-terminal residues yielded 44.2 (SEQ ID NO: ). […] Thus, 44.2 (SEQ ID NO: ) was further modified by the addition of charged (hydrophilic residues) to the N-terminus and by replacement of the hydrophobic residue Val with the less hydrophobic residue Ala. […] CJI-44.8 (SEQ ID NO: 132) was stable and soluble at greater than 5 mg/ml over the pH range pH6-pH8 in an aqueous buffer.
# [3] = Stability in aqueous buffer; format: physicochemical; details: pH6 to pH8
# Excerpt: as §1, §2
# patients' plasma IgE = experiment: Direct binding assay of IgE to Cry j I, Cry j II and recombinant Cry j II (Example 18); design: species or system human
# Procedure: Costar assay plates were coated with Cry j I or Cry j II at 2 μg/mL or recombinant Cry j II preparation at 10 μg/mL (approximately 20% pure) in a volume of 50 μL overnight at 4° C. The coating antigens were removed and the wells were blocked with 0.5% gelatin, PVP (polyvinyl pyrolidine) 1 mg/mL in PBS, 200 μL/well for 2 hours at room temperature. The anti-Cry j I monoclonal antibody, 4B11, was serially diluted in PBS-Tween 20 starting at a 1:1000 dilution. The human plasma were serially diluted in PBS-Tween at a starting dilution of 1:2. For this set 23 plasma samples from patients symptomatic for Japanese cedar pollen allergy chosen for IgE binding analysis. The first antibody incubation proceeded overnight at 4° C. Following three washes with PBS-Tween the second antibodies were added (biotinylated goat anti-mouse Ig or goat anti-human IgE both at 1:2000) and incubated for two hours at room temperature at 100 μL/well. After washing 3 times, […]. This solution was removed and streptavidin-HRPO diluted to 1:10,000, was added at 100 μL/well. The color was allowed to develop for 2-5 minutes. The reaction was stopped by the addition of 100 μL/well of 1M phosphoric acid. Plates were read on a Microplate IL310 Autoreader (Biotek Instruments, Winooski, Vt.) with a 450 nm filter. The absorbance levels of duplicate wells were averaged. A positive binding result, indicated by a plus sign is determined to be a reading of two-fold or greater above background (no first antibody) at the second dilution of plasma ([…]).
molecule,measurement,setting,value
"CJ1-31: Cry j I peptide, SEQ ID NO: 56 (DVFYNGAYFVSSGKYEGGNI; listed as Cryptomeria japonica)",T cell reactivity,Cry j I reactive T cells,high T-cell reactivity
same,T cell line response,Cry j I reactive T cells,responded
"CJ1-32: Cry j I peptide, SEQ ID NO: 57 (SSGKYEGGNIYTKKEAFNVE; listed as Cryptomeria japonica)",T cell reactivity,Cry j I reactive T cells,high T-cell reactivity
same,T cell line response,Cry j I reactive T cells,responded
"Cry j IIG: SEQ ID NO: 191, amino acids 152-175 of Cry j II (GKGVIDGQGKQWWAGQCKWVNGRE; listed as Cryptomeria japonica)",T cell proliferative response,"[1]; 9 patients, FIG. 43",react
"Cry j IIH: SEQ ID NO: 192, amino acids 386-409 of Cry j II (DSMPCKDIKLSDISLKLTSGKIAS; listed as Cryptomeria japonica)",T cell proliferative response,"[1]; 9 patients, FIG. 43",react
DDAYSDDKSMKVTVAFNQFGDE [CJ1-43.39],solubility,[2]; aqueous sodium phosphate buffer,> 5000 µg/mL
same,stability,[3],stable
DEEGAYFVSSGKYEGGNIYTKKEAFNVEDE [CJ1-44.9],solubility,[2]; aqueous buffer,> 5000 µg/mL
same,stability,[3],stable
B1,T cell proliferative response,"[1]; 9 patients, FIG. 43",react
B2,T cell proliferative response,"[1]; 9 patients, FIG. 43",react
B3,plasma IgE binding response,patients' plasma IgE; patient #1034,negative
same,plasma IgE binding response,"patients' plasma IgE; patient plasma samples, FIGS. 31-33",further reduction in binding
same,plasma IgE binding response,patients' plasma IgE; patients #1143 and #1146,clearly positive
same,T cell proliferative response,"[1]; 9 patients, FIG. 43",react
same,T cell proliferative response,"[1]; n=6 patients, FIG. 42",respond well
B4,T cell proliferative response,"[1]; 9 patients, FIG. 43",react
B5,T cell proliferative response,"[1]; 9 patients, FIG. 43",react
